Test results from ChEMBL document CHEMBL2169877, “Antagonists of 5-HT₆ receptors. Substituted 3-(phenylsulfonyl)pyrazolo[1,5-a]pyrido[3,4-e]pyrimidines and 3-(phenylsulfonyl)pyrazolo[1,5-a]pyrido[4,3-d]pyrimidines-Synthesis and 'structure-activity' relationship” (Bioorg Med Chem Lett, 2012).
Active and inactive are the calls of the source. The calls are words filed in the database; no cut-off is given here.

Columns and labels:
[1] = target: T1, 5-hydroxytryptamine receptor 6 (Homo sapiens, UniProt P50406); experiment: Displacement of [3H]lysergic acid diethylamide from human recombinant 5HT6 receptor expressed in HeLa cells after 120 mins; format: cell-based
T1 sequence (P50406 whole entry): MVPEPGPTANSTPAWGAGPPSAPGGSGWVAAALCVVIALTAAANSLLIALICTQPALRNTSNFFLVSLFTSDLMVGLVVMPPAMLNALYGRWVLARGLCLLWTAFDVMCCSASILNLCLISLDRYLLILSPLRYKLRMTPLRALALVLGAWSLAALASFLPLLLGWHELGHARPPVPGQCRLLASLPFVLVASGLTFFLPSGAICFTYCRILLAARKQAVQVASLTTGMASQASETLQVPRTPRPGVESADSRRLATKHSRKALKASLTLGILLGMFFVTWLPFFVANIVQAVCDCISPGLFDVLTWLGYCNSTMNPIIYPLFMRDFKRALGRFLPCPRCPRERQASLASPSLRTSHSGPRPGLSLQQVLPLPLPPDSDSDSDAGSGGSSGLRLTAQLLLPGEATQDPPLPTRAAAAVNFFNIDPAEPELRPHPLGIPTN

[2] = target: T1, 5-hydroxytryptamine receptor 6; experiment: Antagonist activity at human recombinant 5HT6 receptor expressed in […] cells assessed as inhibition of serotonin-induced cAMP accumulation after 2 hrs; format: functional, cell-based, HEK293
[3] = target: Cannabinoid receptor 1 (Homo sapiens) (UniProt P21554); experiment: Binding affinity to CB1 receptor at 1 uM by radioligand displacement assay
[4] = target: Cannabinoid receptor 2 (Homo sapiens) (UniProt P34972); experiment: Binding affinity to CB2 receptor at 1 uM by radioligand displacement assay
[5] = Binding affinity to choline transporter at 1 uM by radioligand displacement assay
[6] = target: Corticotropin-releasing factor receptor 1 (Homo sapiens) (UniProt P34998); experiment: Binding affinity to CRF1R at 1 uM by radioligand displacement assay
[7] = target: D(1A) dopamine receptor (Homo sapiens) (UniProt P21728); experiment: Binding affinity to dopamine D1 receptor at 1 uM by radioligand displacement assay
Chain of D(1A) dopamine receptor (Homo sapiens) (P21728 whole entry): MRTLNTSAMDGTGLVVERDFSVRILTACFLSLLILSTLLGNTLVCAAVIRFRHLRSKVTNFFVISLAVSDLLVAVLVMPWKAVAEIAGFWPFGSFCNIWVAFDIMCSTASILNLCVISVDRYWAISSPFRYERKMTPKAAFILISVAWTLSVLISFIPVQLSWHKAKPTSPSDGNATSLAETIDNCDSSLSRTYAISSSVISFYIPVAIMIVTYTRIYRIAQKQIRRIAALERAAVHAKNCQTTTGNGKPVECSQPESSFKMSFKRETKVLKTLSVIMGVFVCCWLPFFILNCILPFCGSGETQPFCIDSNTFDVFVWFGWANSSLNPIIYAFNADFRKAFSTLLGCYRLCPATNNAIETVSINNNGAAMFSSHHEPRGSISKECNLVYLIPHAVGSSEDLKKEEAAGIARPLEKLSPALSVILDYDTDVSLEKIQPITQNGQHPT

[8] = target: D(2) dopamine receptor (Homo sapiens) (UniProt P14416); experiment: Binding affinity to dopamine D2L receptor at 1 uM by radioligand displacement assay
Chain of D(2) dopamine receptor (Homo sapiens) (P14416 whole entry): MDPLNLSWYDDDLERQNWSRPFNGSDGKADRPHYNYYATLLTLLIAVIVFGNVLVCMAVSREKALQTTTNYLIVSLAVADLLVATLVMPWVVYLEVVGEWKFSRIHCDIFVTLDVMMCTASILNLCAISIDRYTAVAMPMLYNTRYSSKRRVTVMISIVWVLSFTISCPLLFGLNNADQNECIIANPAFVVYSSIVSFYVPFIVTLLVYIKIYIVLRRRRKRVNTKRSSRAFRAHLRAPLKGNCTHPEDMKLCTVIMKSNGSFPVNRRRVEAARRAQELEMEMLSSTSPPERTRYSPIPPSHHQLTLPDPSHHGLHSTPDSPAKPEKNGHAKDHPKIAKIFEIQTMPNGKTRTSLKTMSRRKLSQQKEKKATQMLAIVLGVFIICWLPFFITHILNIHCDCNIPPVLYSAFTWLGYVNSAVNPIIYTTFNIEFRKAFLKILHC

[9] = target: D(2) dopamine receptor (Homo sapiens) (UniProt P14416); experiment: Binding affinity to dopamine D2S receptor at 1 uM by radioligand displacement assay
[10] = target: D(3) dopamine receptor (Homo sapiens) (UniProt P35462); experiment: Binding affinity to dopamine D3 receptor at 1 uM by radioligand displacement assay
[11] = target: Sodium-dependent dopamine transporter (Homo sapiens) (UniProt Q01959); experiment: Binding affinity to DAT at 1 uM by radioligand displacement assay
[12] = Binding affinity to GABA transporter at 1 uM by radioligand displacement assay
[13] = Binding affinity to peripheral benzodiazepine receptor at 1 uM by radioligand displacement assay
[14] = Binding affinity to GABA-B receptor at 1 uM by radioligand displacement assay
[15] = Binding affinity to Glutamate receptor at 1 uM by radioligand displacement assay
[16] = target: Metabotropic glutamate receptor 5 (Homo sapiens) (UniProt P41594); experiment: Binding affinity to mGluR5 at 1 uM by radioligand displacement assay
[17] = Binding affinity to glycine transporter at 1 uM by radioligand displacement assay
[18] = target: Histamine H1 receptor (Homo sapiens) (UniProt P35367); experiment: Binding affinity to histamine receptor H1 at 1 uM by radioligand displacement assay
Chain of Histamine H1 receptor (Homo sapiens) (P35367 whole entry): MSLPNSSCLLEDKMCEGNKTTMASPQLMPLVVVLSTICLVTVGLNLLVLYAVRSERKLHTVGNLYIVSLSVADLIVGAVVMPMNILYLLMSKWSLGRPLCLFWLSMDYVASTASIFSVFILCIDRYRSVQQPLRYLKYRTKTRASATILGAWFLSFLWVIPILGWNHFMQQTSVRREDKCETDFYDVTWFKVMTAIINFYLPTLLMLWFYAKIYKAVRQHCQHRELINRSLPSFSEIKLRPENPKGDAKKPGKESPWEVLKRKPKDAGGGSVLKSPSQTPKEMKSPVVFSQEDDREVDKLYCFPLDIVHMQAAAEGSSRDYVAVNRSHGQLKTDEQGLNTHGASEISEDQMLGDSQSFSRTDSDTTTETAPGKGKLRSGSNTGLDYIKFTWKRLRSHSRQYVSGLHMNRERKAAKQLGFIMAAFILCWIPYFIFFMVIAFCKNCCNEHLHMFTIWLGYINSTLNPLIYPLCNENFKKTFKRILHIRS

[19] = target: Histamine H2 receptor (Homo sapiens) (UniProt P25021); experiment: Binding affinity to histamine receptor H2 at 1 uM by radioligand displacement assay
[20] = target: Histamine H3 receptor (Homo sapiens) (UniProt Q9Y5N1); experiment: Binding affinity to histamine receptor H3 at 1 uM by radioligand displacement assay
[21] = target: Muscarinic acetylcholine receptor M1 (Homo sapiens) (UniProt P11229); experiment: Binding affinity to M1 receptor at 1 uM by radioligand displacement assay
[22] = target: Muscarinic acetylcholine receptor M2 (Homo sapiens) (UniProt P08172); experiment: Binding affinity to M2 receptor at 1 uM by radioligand displacement assay
[23] = Binding affinity to P2X receptor at 1 uM by radioligand displacement assay
[24] = Binding affinity to P2Y receptor at 1 uM by radioligand displacement assay
[25] = target: 5-hydroxytryptamine receptor 1A (Homo sapiens) (UniProt P08908); experiment: Binding affinity to 5HT1A receptor at 1 uM by radioligand displacement assay
[26] = target: 5-hydroxytryptamine receptor 1B (Homo sapiens) (UniProt P28222); experiment: Binding affinity to 5HT1B receptor at 1 uM by radioligand displacement assay
[27] = target: 5-hydroxytryptamine receptor 2C (Homo sapiens) (UniProt P28335); experiment: Binding affinity to 5HT2C receptor at 1 uM by radioligand displacement assay
[28] = target: 5-hydroxytryptamine receptor 3A (Homo sapiens) (UniProt P46098); experiment: Binding affinity to 5HT3 receptor at 1 uM by radioligand displacement assay
[29] = target: 5-hydroxytryptamine receptor 4 (Homo sapiens) (UniProt Q13639); experiment: Binding affinity to 5HT4 receptor at 1 uM by radioligand displacement assay
[30] = target: Sodium-dependent serotonin transporter (Homo sapiens) (UniProt P31645); experiment: Binding affinity to serotonin transporter at 1 uM by radioligand displacement assay
[31] = Binding affinity to sodium channel site 2 at 1 uM by radioligand displacement assay
[32] = target: T2, 5-hydroxytryptamine receptor 2B (Homo sapiens, UniProt P41595); experiment: Antagonist activity at human recombinant 5HT2B receptor expressed in HEK293 cells assessed as inhibition of alphamethyl5HT-induced intracellular calcium mobilization by Fluo4-based staining method; format: functional, cell-based; details: hek293
T2 sequence (P41595 whole entry): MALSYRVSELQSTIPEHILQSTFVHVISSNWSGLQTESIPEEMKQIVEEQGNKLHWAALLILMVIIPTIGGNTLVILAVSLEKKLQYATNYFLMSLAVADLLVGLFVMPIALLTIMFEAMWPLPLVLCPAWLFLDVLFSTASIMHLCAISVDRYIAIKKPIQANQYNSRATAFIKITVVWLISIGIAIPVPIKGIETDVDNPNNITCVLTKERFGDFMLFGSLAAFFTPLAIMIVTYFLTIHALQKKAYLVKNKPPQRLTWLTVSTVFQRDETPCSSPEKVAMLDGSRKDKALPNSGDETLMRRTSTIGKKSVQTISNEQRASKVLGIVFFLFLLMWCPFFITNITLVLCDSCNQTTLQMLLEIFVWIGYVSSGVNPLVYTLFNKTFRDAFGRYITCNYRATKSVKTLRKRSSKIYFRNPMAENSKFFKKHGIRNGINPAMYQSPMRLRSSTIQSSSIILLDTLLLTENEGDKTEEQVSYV

[33] = Binding affinity to central-type GABA(A) receptor muscimol binding site at 1 uM by radioligand displacement assay
[34] = Binding affinity to central-type GABA(A) receptor flunitrazepam binding site at 1 uM by radioligand displacement assay
[35] = Binding affinity to GABA(A) receptor RO-15-1788 binding site at 1 uM by radioligand displacement assay
[36] = Binding affinity to GABA(A) receptor TBOB binding site at 1 uM by radioligand displacement assay
[37] = Binding affinity to GABA(A) receptor TBOP binding site at 1 uM by radioligand displacement assay
[38] = target: 5-hydroxytryptamine receptor 5A (Homo sapiens) (UniProt P47898); experiment: Binding affinity to 5HT5 receptor at 1 uM by radioligand displacement assay
[39] = target: Amine oxidase [flavin-containing] A (Homo sapiens, UniProt P21397); experiment: Binding affinity to MAO-A at 1 uM by radioligand displacement assay
[40] = target: Amine oxidase [flavin-containing] B (Homo sapiens, UniProt P27338); experiment: Binding affinity to MAO-B at 1 uM by radioligand displacement assay
[41] = target: Nitric oxide synthase 1 (Homo sapiens) (UniProt P29475); experiment: Binding affinity to nNOS at 1 uM by radioligand displacement assay
[42] = target: Nitric oxide synthase, inducible (Homo sapiens) (UniProt P35228); experiment: Binding affinity to iNOS at 1 uM by radioligand displacement assay
[43] = Binding affinity to PDE1 at 1 uM by radioligand displacement assay
[44] = Binding affinity to PDE2 at 1 uM by radioligand displacement assay
[45] = Binding affinity to PDE3 at 1 uM by radioligand displacement assay
[46] = Binding affinity to PDE4 at 1 uM by radioligand displacement assay
[47] = Binding affinity to PDE5 at 1 uM by radioligand displacement assay
[48] = target: cAMP and cAMP-inhibited cGMP 3',5'-cyclic phosphodiesterase 10A (Homo sapiens) (UniProt Q9Y233); experiment: Binding affinity to PDE10A1 at 1 uM by radioligand displacement assay
Chain of cAMP and cAMP-inhibited cGMP 3',5'-cyclic phosphodiesterase 10A (Homo sapiens) (Q9Y233 whole entry): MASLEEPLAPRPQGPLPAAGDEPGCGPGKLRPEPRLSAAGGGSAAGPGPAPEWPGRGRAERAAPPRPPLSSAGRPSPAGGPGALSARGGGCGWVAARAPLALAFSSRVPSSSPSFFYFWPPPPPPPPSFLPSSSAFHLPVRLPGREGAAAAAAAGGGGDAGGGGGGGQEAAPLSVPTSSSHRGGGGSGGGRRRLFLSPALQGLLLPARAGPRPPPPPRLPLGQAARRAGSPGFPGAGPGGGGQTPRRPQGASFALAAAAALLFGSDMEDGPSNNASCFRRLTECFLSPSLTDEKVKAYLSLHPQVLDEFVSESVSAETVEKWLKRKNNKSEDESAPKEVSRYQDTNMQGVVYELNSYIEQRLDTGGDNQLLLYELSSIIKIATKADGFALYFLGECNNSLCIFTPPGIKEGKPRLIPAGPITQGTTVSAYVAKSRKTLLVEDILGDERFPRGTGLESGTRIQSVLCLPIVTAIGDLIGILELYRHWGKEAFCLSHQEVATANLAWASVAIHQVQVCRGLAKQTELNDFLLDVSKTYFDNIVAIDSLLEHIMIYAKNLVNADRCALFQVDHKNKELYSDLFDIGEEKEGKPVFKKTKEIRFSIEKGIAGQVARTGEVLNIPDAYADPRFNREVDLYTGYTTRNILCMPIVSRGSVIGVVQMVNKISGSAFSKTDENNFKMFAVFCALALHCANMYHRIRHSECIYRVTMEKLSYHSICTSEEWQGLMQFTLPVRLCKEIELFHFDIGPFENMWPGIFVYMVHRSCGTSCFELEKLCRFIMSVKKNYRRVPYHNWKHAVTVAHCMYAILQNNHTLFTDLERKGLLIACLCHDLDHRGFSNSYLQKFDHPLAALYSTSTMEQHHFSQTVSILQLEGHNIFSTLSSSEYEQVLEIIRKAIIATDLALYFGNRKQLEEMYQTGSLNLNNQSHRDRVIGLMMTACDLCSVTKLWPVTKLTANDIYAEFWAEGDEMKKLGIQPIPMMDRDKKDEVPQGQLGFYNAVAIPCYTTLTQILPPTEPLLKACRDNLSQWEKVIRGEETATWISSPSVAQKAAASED

[49] = target: Cyclin-dependent kinase 1/cyclin B1 (Homo sapiens) (UniProt P06493+P14635); experiment: Binding affinity to CDK1/cyclin B at 1 uM by radioligand displacement assay; format: protein-complex assay
[50] = target: Cyclin-dependent kinase 2/cyclin A (Homo sapiens) (UniProt P24941+P20248+P78396); experiment: Binding affinity to CDK2/cyclin A at 1 uM by radioligand displacement assay; format: protein-complex assay
[51] = target: Cyclin-dependent kinase 5/CDK5 activator 1 (Homo sapiens) (UniProt Q00535+Q15078); experiment: Binding affinity to cdk5/p35 at 1 uM by radioligand displacement assay; format: protein-complex assay
[52] = target: Glycogen synthase kinase-3 beta (Homo sapiens) (UniProt P49841); experiment: Binding affinity to GSK3beta at 1 uM by radioligand displacement assay
Chain of Glycogen synthase kinase-3 beta (Homo sapiens) (P49841 whole entry, looked up): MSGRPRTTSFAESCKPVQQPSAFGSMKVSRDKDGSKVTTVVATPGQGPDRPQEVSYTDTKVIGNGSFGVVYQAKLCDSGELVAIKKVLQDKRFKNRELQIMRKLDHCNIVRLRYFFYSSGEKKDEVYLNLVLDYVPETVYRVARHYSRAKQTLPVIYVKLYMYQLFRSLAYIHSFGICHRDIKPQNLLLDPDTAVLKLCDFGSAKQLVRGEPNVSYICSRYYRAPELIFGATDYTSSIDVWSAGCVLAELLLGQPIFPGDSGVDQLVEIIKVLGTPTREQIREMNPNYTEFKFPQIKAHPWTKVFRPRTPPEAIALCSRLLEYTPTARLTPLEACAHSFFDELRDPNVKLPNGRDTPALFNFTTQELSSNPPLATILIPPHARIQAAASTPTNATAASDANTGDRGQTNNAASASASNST

[53] = target: RAC-alpha serine/threonine-protein kinase (Homo sapiens) (UniProt P31749); experiment: Binding affinity to AKT1 at 1 uM by radioligand displacement assay
[54] = Binding affinity to PKC at 1 uM by radioligand displacement assay
[55] = target: Adenosine receptor A1 (Homo sapiens) (UniProt P30542); experiment: Binding affinity to adenosine A1 receptor at 1 uM by radioligand displacement assay
Chain of Adenosine receptor A1 (Homo sapiens) (P30542 whole entry): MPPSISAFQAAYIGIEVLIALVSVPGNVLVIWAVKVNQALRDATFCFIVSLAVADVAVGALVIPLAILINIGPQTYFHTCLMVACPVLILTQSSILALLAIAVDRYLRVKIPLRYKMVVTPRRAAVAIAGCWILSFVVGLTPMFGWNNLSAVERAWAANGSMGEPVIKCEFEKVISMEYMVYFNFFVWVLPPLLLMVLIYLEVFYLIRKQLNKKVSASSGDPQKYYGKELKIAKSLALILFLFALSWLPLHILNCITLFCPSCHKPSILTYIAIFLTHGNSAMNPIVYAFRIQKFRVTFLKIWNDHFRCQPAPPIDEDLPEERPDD

[56] = target: Adenosine receptor A2a (Homo sapiens) (UniProt P29274); experiment: Binding affinity to adenosine A2A receptor at 1 uM by radioligand displacement assay
Chain of Adenosine receptor A2a (Homo sapiens) (P29274 whole entry): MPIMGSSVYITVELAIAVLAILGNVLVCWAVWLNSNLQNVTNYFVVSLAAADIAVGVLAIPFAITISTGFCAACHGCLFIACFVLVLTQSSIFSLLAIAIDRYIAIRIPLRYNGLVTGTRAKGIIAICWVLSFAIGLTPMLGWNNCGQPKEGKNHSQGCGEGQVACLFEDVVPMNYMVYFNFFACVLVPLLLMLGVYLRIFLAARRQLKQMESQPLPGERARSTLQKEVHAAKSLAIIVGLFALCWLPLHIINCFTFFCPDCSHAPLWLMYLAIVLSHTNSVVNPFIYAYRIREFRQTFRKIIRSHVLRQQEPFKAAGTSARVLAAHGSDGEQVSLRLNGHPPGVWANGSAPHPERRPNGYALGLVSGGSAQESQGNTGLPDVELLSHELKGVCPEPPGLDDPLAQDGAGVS

[57] = target: Adenosine receptor A3 (Homo sapiens) (UniProt P0DMS8); experiment: Binding affinity to adenosine A3 receptor at 1 uM by radioligand displacement assay
[58] = Binding affinity to adenosine transporter at 1 uM by radioligand displacement assay
[59] = target: Alpha-1A adrenergic receptor (Homo sapiens) (UniProt P35348); experiment: Binding affinity to alpha1A adrenergic receptor at 1 uM by radioligand displacement assay
Chain of Alpha-1A adrenergic receptor (Homo sapiens) (P35348 whole entry): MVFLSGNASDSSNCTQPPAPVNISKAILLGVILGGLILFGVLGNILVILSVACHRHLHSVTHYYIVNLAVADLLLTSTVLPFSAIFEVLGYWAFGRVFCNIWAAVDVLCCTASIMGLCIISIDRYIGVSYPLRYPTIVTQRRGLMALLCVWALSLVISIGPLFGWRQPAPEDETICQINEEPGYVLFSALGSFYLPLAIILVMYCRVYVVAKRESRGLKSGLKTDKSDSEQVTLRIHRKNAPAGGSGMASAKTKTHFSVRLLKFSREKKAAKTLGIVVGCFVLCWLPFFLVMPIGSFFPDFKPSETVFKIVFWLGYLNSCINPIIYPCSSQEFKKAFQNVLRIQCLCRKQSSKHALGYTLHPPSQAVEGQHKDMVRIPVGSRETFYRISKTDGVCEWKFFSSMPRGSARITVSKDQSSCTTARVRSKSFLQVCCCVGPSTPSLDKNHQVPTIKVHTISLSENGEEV

[60] = target: Alpha-1B adrenergic receptor (Homo sapiens) (UniProt P35368); experiment: Binding affinity to alpha1B adrenergic receptor at 1 uM by radioligand displacement assay
[61] = target: Alpha-2A adrenergic receptor (Homo sapiens) (UniProt P08913); experiment: Binding affinity to alpha2A adrenergic receptor at 1 uM by radioligand displacement assay
[62] = target: Alpha-2B adrenergic receptor (Homo sapiens) (UniProt P18089); experiment: Binding affinity to alpha2B adrenergic receptor at 1 uM by radioligand displacement assay
[63] = target: Beta-1 adrenergic receptor (Homo sapiens) (UniProt P08588); experiment: Binding affinity to beta1 adrenergic receptor at 1 uM by radioligand displacement assay
[64] = target: Beta-2 adrenergic receptor (Homo sapiens) (UniProt P07550); experiment: Binding affinity to beta2 adrenergic receptor at 1 uM by radioligand displacement assay
[65] = target: Sodium-dependent noradrenaline transporter (Homo sapiens) (UniProt P23975); experiment: Binding affinity to NET at 1 uM by radioligand displacement assay
[66] = Binding affinity to L-type calcium channel benzothiazepine binding site at 1 uM by radioligand displacement assay
[67] = Binding affinity to L-type calcium channel phenylalkylamine binding site at 1 uM by radioligand displacement assay
[68] = Binding affinity to N-type calcium channel at 1 uM by radioligand displacement assay
[69] = target: Acetylcholinesterase (Homo sapiens) (UniProt P22303); experiment: Binding affinity to AChE at 1 uM by radioligand displacement assay
[70] = target: T2, 5-hydroxytryptamine receptor 2B; experiment: Displacement of [3H]lysergic acid diethylamide from human recombinant 5HT2B receptor at 1 uM

## Cc1nn2cc3c(nc2c1S(=O)(=O)c1ccccc1)CCN(C)C3
[1]
  Ki: > 10000 nM

## CSc1nn2cc3c(nc2c1S(=O)(=O)c1ccccc1)CCN(C)C3
[2]
  Ki: 492 nM

## CNc1nn2cc3c(nc2c1S(=O)(=O)c1ccccc1)CCN(C)C3
[3]
  Activity: inactive
[4]
  Activity: inactive
[5]
  Activity: inactive
[6]
  Activity: inactive
[7]
  Activity: inactive
[8]
  Activity: inactive
[9]
  Activity: inactive
[10]
  Activity: inactive
[11]
  Activity: inactive
[12]
  Activity: inactive
[13]
  Activity: inactive
[14]
  Activity: inactive
[15]
  Activity: inactive
[16]
  Activity: inactive
[17]
  Activity: inactive
[18]
  Activity: inactive
[19]
  Activity: inactive
[20]
  Activity: inactive
[21]
  Activity: inactive
[22]
  Activity: inactive
[23]
  Activity: inactive
[24]
  Activity: inactive
[25]
  Activity: inactive
[26]
  Activity: inactive
[27]
  Activity: inactive
[28]
  Activity: inactive
[29]
  Activity: inactive
[30]
  Activity: inactive
[31]
  Activity: inactive
[32]
  IC50: Not Active
[33]
  Activity: inactive
[34]
  Activity: inactive
[35]
  Activity: inactive
[36]
  Activity: inactive
[37]
  Activity: inactive
[38]
  Activity: inactive
[39]
  Activity: Not Active
[40]
  Activity: Not Active
[41]
  Activity: inactive
[42]
  Activity: inactive
[43]
  Activity: inactive
[44]
  Activity: inactive
[45]
  Activity: inactive
[46]
  Activity: inactive
[47]
  Activity: inactive
[48]
  Activity: inactive
[49]
  Activity: inactive
[50]
  Activity: inactive
[51]
  Activity: inactive
[52]
  Activity: inactive
[53]
  Activity: inactive
[54]
  Activity: inactive
[55]
  Activity: inactive
[56]
  Activity: inactive
[57]
  Activity: inactive
[58]
  Activity: inactive
[59]
  Activity: inactive
[60]
  Activity: inactive
[61]
  Activity: inactive
[62]
  Activity: inactive
[63]
  Activity: inactive
[64]
  Activity: inactive
[65]
  Activity: inactive
[66]
  Activity: inactive
[67]
  Activity: inactive
[68]
  Activity: inactive
[69]
  Activity: inactive
[70]
  Activity: inactive
[1]
  Ki: 0.82 nM
[2]
  Ki: 14.3 nM

## CNc1nn2c3c(cnc2c1S(=O)(=O)c1ccccc1)CNCC3
[2]
  Ki: 1.9 nM

## CSc1nn2c3c(cnc2c1S(=O)(=O)c1ccccc1)CN(C)CC3
[1]
  Ki: 7.7 nM
[2]
  Ki: 14.8 nM
